Test results published in patent EP4759810A1, “PROTAC TARGETING BCL-XL PROTEIN AND USE THEREOF” (BEIJING SUNCELL BIO-MEDICAL CO., LTD., priority 2023, dated 2025).
Read-outs that look alike come from different tables or passages of the source.

Test system: Molt-4 cells
Assay: Molt-4 cell killing activity test (CCK-8)
Format: cell-based
Details: for EC50: Homo sapiens; for activity for killing Molt-4 cells, in words: comparison with C1, the targeting ligand or control molecules
Experimental: Molt-4 cells were cultured and amplified in 10 cm dishes by using RPMI-1640 medium supplemented with 10% fetal bovine serum. Actively growing and healthy Molt-4 cells were collected, centrifuged at 1000 rpm for 5 minutes, and after removing the supernatant, the cells were resuspended in fresh RPMI-1640 medium containing 10% fetal bovine serum. Cell counting was then performed. The cell density was adjusted to 120,000 cells per milliliter, and 100 µL of the cell suspension was added to each well of a 96-well transparent cell culture plate. It was noted that the edge wells of the 96-well plate were not used for testing; and 300 µL of PBS alone was added to these wells to reduce medium evaporation.
The small molecule compounds to be tested for activity were prepared. A series of small molecule concentration gradients (0.001, 0.003, 0.01, 0.03, 0.1, 0.3, 1, and 3 µM) were pre-set, and a series of 2× drug dilutions for the above concentrations were prepared in RPMI-1640 medium containing 10% fetal bovine serum. 100 µL of the above medium containing the gradient concentrations of the drug was added to each well of a 96-well plate pre-seeded with cells, so that the final drug concentration in each well was the pre-set concentration gradient. Three replicate wells were used for each tested drug concentration. The 96-well plate was placed back in a 37°C incubator, and the cell viability was measured after three days.
The plate was taken out three days after adding the drugs, and 100 µL of pre-prepared CCK-8 working solution was added to each well. The CCK-8 working solution was obtained through diluting a CCK-8 stock solution (C0041, Beyotime) by 10-fold volumn with a serum-free RPMI-1640 medium. The 96-well plates with the added CCK-8 working solution were placed back in the 37°C incubator and incubated for 0.5-2 hours. The plates were then taken out, and the absorbance value (OD value) of each well was measured at a wavelength of 450 nm, and the cell viability in each experimental group was calculated according to the following formula: Relative cell viability (%) = […] × 100%.

[1] = 72 h, Molt-4 cells, three days, CCK-8, read-out: EC50 (Molt-4)
[2] = Bcl-xL-positive Molt-4 cells, read-out: cellular activity / killing activity (Molt-4 cells)

Row | SMILES | EC50 [1] | activity for killing Molt-4 cells, in words | EC50 [2] | killing Molt-4 cells at different concentrations (Figure 1), in words (Figure 1, 0.001-3 µM, comparison with control molecules)
1 | O=C1CCC(N2C(=O)c3cccc(NCCOCCOCCOCCOCCNC(=O)c4nc(N5CCc6cccc(C(=O)Nc7nc8ccccc8s7)c6C5)ccc4CCCOc4ccc(C#CCN5CCNCC5)cc4F)c3C2=O)C(=O)N1 (centres unmarked) [AF4] | > 1000 nM | lower killing activity or loss the function |  | 
2 | Cc1c(-c2ccc(N3CCc4cccc(C(=O)Nc5nc6ccccc6s5)c4C3)nc2C(=O)NCCOCCOCCNc2cccc3c2C(=O)N(C2CCC(=O)NC2=O)C3=O)cnn1CC12CC3CC(CC(C3)C1)C2 (centres unmarked) [APF2] | < 10 nM | good cellular activity similar to those of the targeting ligand per se |  | 
3 | Cc1c(-c2ccc(N3CCc4cccc(C(=O)Nc5nc6ccccc6s5)c4C3)nc2C(=O)NCCOCCOCCOCCNc2cccc3c2C(=O)N(C2CCC(=O)NC2=O)C3=O)cnn1CC12CC3CC(CC(C3)C1)C2 (centres unmarked) [APF3] | < 10 nM | good cellular activity similar to those of the targeting ligand per se |  | 
4 | Cc1c(-c2ccc(N3CCc4cccc(C(=O)Nc5nc6ccccc6s5)c4C3)nc2C(=O)NCCOCCOCCOCCOCCNc2cccc3c2C(=O)N(C2CCC(=O)NC2=O)C3=O)cnn1CC12CC3CC(CC(C3)C1)C2 (centres unmarked) [APF4] | < 10 nM | good cellular activity similar to those of the targeting ligand per se |  | 
5 | CN[C@@H](C)C(=O)N[C@H](C(=O)N1CCC[C@H]1c1nc(C(=O)c2cccc(OCCN3CCC(CN4CCN(CC#Cc5ccc(OCCCc6ccc(N7CCc8cccc(C(=O)Nc9nc%10ccccc%10s9)c8C7)nc6C(=O)O)c(F)c5)CC4)CC3)c2)cs1)C1CCCCC1 [APL-1] | 10 to 100 nM |  |  | 
6 | Cc1ncsc1-c1ccc([C@H](C)NC(=O)[C@@H]2C[C@@H](O)CN2C(=O)[C@@H](NC(=O)CCN2CCC(CN3CCN(CC#Cc4ccc(OCCCc5ccc(N6CCc7cccc(C(=O)Nc8nc9ccccc9s8)c7C6)nc5C(=O)O)c(F)c4)CC3)CC2)C(C)(C)C)cc1 [APQ3] | 10 to 100 nM |  |  | 
7 | O=C1CCN(c2ccc(N3CCN(C(=O)CCN4CCN(CC#Cc5ccc(OCCCc6ccc(N7CCc8cccc(C(=O)Nc9nc%10ccccc%10s9)c8C7)nc6C(=O)O)c(F)c5)CC4)CC3)cc2)C(=O)N1 [APQ5a] | < 10 nM |  | < 10 nM | 
8 | O=C1CCN(c2ccc(N3CCN(C(=O)CCCN4CCN(CC#Cc5ccc(OCCCc6ccc(N7CCc8cccc(C(=O)Nc9nc%10ccccc%10s9)c8C7)nc6C(=O)O)c(F)c5)CC4)CC3)cc2)C(=O)N1 [APQ5b] | 10 to 100 nM |  |  | 
9 | O=C1CCN(c2ccc(N3CC(CN4CCN(CC#Cc5ccc(OCCCc6ccc(N7CCc8cccc(C(=O)Nc9nc%10ccccc%10s9)c8C7)nc6C(=O)O)c(F)c5)CC4)C3)cc2)C(=O)N1 [APQ6b] | 10 to 100 nM |  |  | 
10 | O=C1CCN(c2ccc(N3CCN(C4CCN(CC#Cc5ccc(OCCCc6ccc(N7CCc8cccc(C(=O)Nc9nc%10ccccc%10s9)c8C7)nc6C(=O)O)c(F)c5)CC4)CC3)cc2)C(=O)N1 [APQ7a] | < 10 nM |  | < 10 nM | comparable to A-1331852
11 | O=C1CCN(c2ccc(N3CCN(CC4CCN(CC#Cc5ccc(OCCCc6ccc(N7CCc8cccc(C(=O)Nc9nc%10ccccc%10s9)c8C7)nc6C(=O)O)c(F)c5)CC4)CC3)cc2)C(=O)N1 [APQ7b] | 10 to 100 nM |  |  | 
12 | O=C1CCN(c2ccc(OCCN3CCC(CN4CCN(CC#Cc5ccc(OCCCc6ccc(N7CCc8cccc(C(=O)Nc9nc%10ccccc%10s9)c8C7)nc6C(=O)O)c(F)c5)CC4)CC3)cc2)C(=O)N1 [APQ8] | 10 to 100 nM |  |  | 
13 | COC(=O)c1nc(N2CCc3cccc(C(=O)Nc4nc5ccccc5s4)c3C2)ccc1CCCOc1ccc(C#CCN2CCN(c3ccc(N4CCC(=O)NC4=O)cc3)CC2)cc1F [APQ9-1] | > 1000 nM | lower killing activity or loss the function |  | 
14 | CC(C)(C)OC(=O)c1nc(N2CCc3cccc(C(=O)Nc4nc5ccccc5s4)c3C2)ccc1CCCOc1ccc(C#CCN2CCN(CC3CCN(c4ccc(N5CCC(=O)NC5=O)cc4)CC3)CC2)cc1F [APQ10-1] | > 1000 nM | lower killing activity or loss the function |  | 
